The source of these data is patent US9409905B2, “Antibacterial compounds and methods for use” (PTC THERAPEUTICS, INC., priority 2011, dated 2016).

≈ marks a conversion by molar mass, not a printed value.

Broadly, the MIC is the lowest concentration found to suppress growth.

In test [1] the test system is Staphylococcus aureus (S. aureus) 29213. Description: Antibacterial activity, microbroth dilution MIC (Table 1). To be noted: microbroth dilution, Gram-positive S. aureus 29213, read-out: MIC, 29213. The test is classed as cell-based. A digest of the protocol:
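Microbroth dilution was used. MIC, in μg/mL, is the lowest drug concentration preventing macroscopically visible growth under the test conditions.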
(Broth dilution looks for growth in wells or tubes with falling amounts of substance.)

Test [2] has as its system Escherichia coli (E. coli) BAS849. The description is as above. Format: cell-based. The settings on record: microbroth dilution, super sensitive Gram-negative E. coli BAS849, read-out: MIC, BAS849. The method, boiled down:
(§1)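 Potency is reported as minimum inhibitory concentration in μg/mL, determined by broth microdilution as the lowest level of compound that stops growth visible to the eye.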

In the next test the test system is E. coli 25922. The description is as above. The test is classed as cell-based, Escherichia coli. To be noted: Escherichia coli; microbroth dilution; control Gram-negative E. coli 25922 strain; read-out: MIC, 25922. The method, boiled down: as §1
For test [3], the system named is Pseudomonas aeruginosa (P. aeruginosa) 27853. Description: Antibacterial activity, MIC (Table 5). The test is classed as cell-based. To be noted: P. aeruginosa 27853, read-out: MIC, 27853. A digest of the protocol: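 Compounds are serially diluted in broth and inoculated with the organism. Growth is then inspected macroscopically, and the lowest concentration showing none is taken as the MIC (μg/mL).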

The test system of the next test is A. baumannii MXX2240. The test can be described thus: Antibacterial activity, MIC, resistant strain (Table 4). Format: cell-based. The settings on record: Acinetobacter baumannii, MXX2240; resistant A. baumannii MMX2240, multi-drug resistant clinical isolate; read-out: MIC, MMX2240. A digest of the protocol: (§2)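 Broth microdilution; MIC (μg/mL) = lowest concentration with no macroscopically visible growth. Resistant strains: multi-drug resistant clinical isolates.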

The subject of the next test is K. pneumoniae MXX1232. Described as above. Format: cell-based. To be noted: Klebsiella pneumoniae, MXX1232; resistant K. pneumoniae MMX1232, multi-drug resistant clinical isolate; read-out: MIC, MMX1232. The method, boiled down: as §2
The subject of test [4] is Acinetobacter baumannii (A. baumannii) BAA747. Description: Antibacterial activity, MIC (Table 4). The test is classed as cell-based. To be noted: A. baumannii BAA747, read-out: MIC, BAA747. A digest of the protocol:
as §2

The test system of test [5] is Klebsiella pneumoniae (K. pneumoniae) 35657. The test can be described thus: Antibacterial activity, MIC (Table 4). Format: cell-based. The settings on record: K. pneumoniae 35657, read-out: MIC, 35657. The method, boiled down: as §2
A further test deals with E. coli LZ3111. The test can be described thus: Antibacterial activity, MIC, quinolone resistant strain (Table 2). Format: cell-based. The settings on record: Escherichia coli, LZ3111, read-out: MIC LZ3111. The method, boiled down: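 Strain carries mutations conferring high-level quinolone resistance; tested by microbroth dilution, MIC recorded in μg/mL as lowest concentration preventing visible growth.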

Turning to `CCc1c(-c2ccc3cn[nH]c3c2)[nH]c(=O)c(C(=O)O)c1O` [Cpd 391, 5-ethyl-4-hydroxy-6-(1H-indazol-6-yl)-2-oxo-1,2-dihydropyridine-3-carboxylic acid], the MIC in test [1] was in the range of 12.5 to 150 µg/mL (≈ 41.8 to 501 µM); in test [2] it was 3.5 to 12.5 µg/mL (≈ 11.7 to 41.8 µM); in the test on E. coli 25922 it was 12.5 to 150 µg/mL (≈ 41.8 to 501 µM); in [3], 12.5 to 150 µg/mL (≈ 41.8 to 501 µM); in the test on A. baumannii MXX2240, 12.5 to 150 µg/mL (≈ 41.8 to 501 µM); with K. pneumoniae MXX1232, 12.5 to 150 µg/mL (≈ 41.8 to 501 µM). Also, the MIC in test [4] was 12.5 to 150 µg/mL (≈ 41.8 to 501 µM); in test [5] it was 3.5 to 12.5 µg/mL (≈ 11.7 to 41.8 µM); with E. coli LZ3111 it was 3.5 to 12.5 µg/mL (≈ 11.7 to 41.8 µM).
Turning to `CCc1c(-c2ccc3[nH]ncc3c2)[nH]c(=O)c(C(=O)O)c1O` [Cpd 392, 5-ethyl-4-hydroxy-6-(1H-indazol-5-yl)-2-oxo-1,2-dihydropyridine-3-carboxylic acid], the minimum inhibitory concentration (MIC) in [1] was in the range of 12.5 to 150 µg/mL (≈ 41.8 to 501 µM); in test [2], 3.5 to 12.5 µg/mL (≈ 11.7 to 41.8 µM); in the test on E. coli 25922 it was 12.5 to 150 µg/mL (≈ 41.8 to 501 µM); in test [3], 12.5 to 150 µg/mL (≈ 41.8 to 501 µM); with A. baumannii MXX2240, 12.5 to 150 µg/mL (≈ 41.8 to 501 µM); in the test on K. pneumoniae MXX1232, 12.5 to 150 µg/mL (≈ 41.8 to 501 µM). Further, the results for the MIC (in test [4]; in [5]; in the test on E. coli LZ3111) were 12.5 to 150 µg/mL (≈ 41.8 to 501 µM), 3.5 to 12.5 µg/mL (≈ 11.7 to 41.8 µM) and 3.5 to 12.5 µg/mL (≈ 11.7 to 41.8 µM), respectively.
Regarding `CCc1c(-c2ccc3nn(C)cc3c2)[nH]c(=O)c(C(=O)O)c1O` [Cpd 393, 5-ethyl-4-hydroxy-6-(2-methyl-2H-indazol-5-yl)-2-oxo-1,2-dihydropyridine-3-carboxylic acid], the MIC in test [1] was 12.5 to 150 µg/mL (≈ 39.9 to 479 µM); in test [2], under 1 µg/mL; with E. coli 25922, 3.5 to 12.5 µg/mL (≈ 11.2 to 39.9 µM); in test [3] it was 12.5 to 150 µg/mL (≈ 39.9 to 479 µM); in the test with A. baumannii MXX2240 it was 3.5 to 12.5 µg/mL (≈ 11.2 to 39.9 µM); in the test with K. pneumoniae MXX1232, 12.5 to 150 µg/mL (≈ 39.9 to 479 µM). The MIC was in the range of 3.5 to 12.5 µg/mL (≈ 11.2 to 39.9 µM) in test [4], 12.5 to 150 µg/mL (≈ 39.9 to 479 µM) in test [5] and 3.5 to 12.5 µg/mL (≈ 11.2 to 39.9 µM) with E. coli LZ3111.
On to `Cc1c(-c2ccc3c(cnn3C)c2)[nH]c(=O)c(C(=O)O)c1O` [Cpd 394, 4-hydroxy-5-methyl-6-(1-methyl-1H-indazol-5-yl)-2-oxo-1,2-dihydropyridine-3-carboxylic acid], for which the MIC was 12.5 to 150 µg/mL (≈ 41.8 to 501 µM) in test [1]; 3.5 to 12.5 µg/mL (≈ 11.7 to 41.8 µM) in [2]; 12.5 to 150 µg/mL (≈ 41.8 to 501 µM) with E. coli 25922; 12.5 to 150 µg/mL (≈ 41.8 to 501 µM) in test [3]; under 1 µg/mL in the test with A. baumannii MXX2240; 12.5 to 150 µg/mL (≈ 41.8 to 501 µM) in the test with K. pneumoniae MXX1232. In addition, the MIC in test [4] is 12.5 to 150 µg/mL (≈ 41.8 to 501 µM); in test [5], 12.5 to 150 µg/mL (≈ 41.8 to 501 µM); in the test with E. coli LZ3111, under 1 µg/mL.
Regarding `Cc1c(-c2ccc3nn(C)cc3c2)[nH]c(=O)c(C(=O)O)c1O` [Cpd 395, 4-hydroxy-5-methyl-6-(2-methyl-2H-indazol-5-yl)-2-oxo-1,2-dihydropyridine-3-carboxylic acid], the MIC in test [1] lay within 3.5 to 12.5 µg/mL (≈ 11.7 to 41.8 µM); in test [2], 12.5 to 150 µg/mL (≈ 41.8 to 501 µM); in the test on E. coli 25922 it was 12.5 to 150 µg/mL (≈ 41.8 to 501 µM); in test [3], 12.5 to 150 µg/mL (≈ 41.8 to 501 µM); in the test with A. baumannii MXX2240 it was 3.5 to 12.5 µg/mL (≈ 11.7 to 41.8 µM); in the test with K. pneumoniae MXX1232 it was 12.5 to 150 µg/mL (≈ 41.8 to 501 µM). The MIC in test [4] was 12.5 to 150 µg/mL (≈ 41.8 to 501 µM); in [5] it was 12.5 to 150 µg/mL (≈ 41.8 to 501 µM); with E. coli LZ3111, 1 to 3.5 µg/mL (≈ 3.34 to 11.7 µM).
For `Cc1c(-c2ccc3cnn(C)c3c2)[nH]c(=O)c(C(=O)O)c1O` [Cpd 396, 4-hydroxy-5-methyl-6-(1-methyl-1H-indazol-6-yl)-2-oxo-1,2-dihydropyridine-3-carboxylic acid], the MIC lay in the range of 12.5 to 150 µg/mL (≈ 41.8 to 501 µM) in test [1]; 12.5 to 150 µg/mL (≈ 41.8 to 501 µM) in test [2]; 12.5 to 150 µg/mL (≈ 41.8 to 501 µM) with E. coli 25922; 12.5 to 150 µg/mL (≈ 41.8 to 501 µM) in test [3]; 3.5 to 12.5 µg/mL (≈ 11.7 to 41.8 µM) in the test on A. baumannii MXX2240; 12.5 to 150 µg/mL (≈ 41.8 to 501 µM) with K. pneumoniae MXX1232. Besides, the MIC in [4] is 12.5 to 150 µg/mL (≈ 41.8 to 501 µM); in [5], 12.5 to 150 µg/mL (≈ 41.8 to 501 µM); with E. coli LZ3111, 1 to 3.5 µg/mL (≈ 3.34 to 11.7 µM).
For the molecule `Cc1c(-c2ccc3cn(C)nc3c2)[nH]c(=O)c(C(=O)O)c1O` [Cpd 397, 4-hydroxy-5-methyl-6-(2-methyl-2H-indazol-6-yl)-2-oxo-1,2-dihydropyridine-3-carboxylic acid], the minimal inhibitory concentration (MIC) lay within 12.5 to 150 µg/mL (≈ 41.8 to 501 µM) in test [1]; 12.5 to 150 µg/mL (≈ 41.8 to 501 µM) in test [2]; 12.5 to 150 µg/mL (≈ 41.8 to 501 µM) in the test with E. coli 25922; 12.5 to 150 µg/mL (≈ 41.8 to 501 µM) in test [3]; 3.5 to 12.5 µg/mL (≈ 11.7 to 41.8 µM) in the test with A. baumannii MXX2240; 12.5 to 150 µg/mL (≈ 41.8 to 501 µM) in the test on K. pneumoniae MXX1232. In addition, the MIC was in the range of 12.5 to 150 µg/mL (≈ 41.8 to 501 µM) in [4], 12.5 to 150 µg/mL (≈ 41.8 to 501 µM) in test [5] and 1 to 3.5 µg/mL (≈ 3.34 to 11.7 µM) with E. coli LZ3111.
